According to patent US6355799B1, “Substituted benzene compounds, process for their preparation, and herbicidal and defoliant compositions containing them” (ISK Americas Incorporated, priority 1997, dated 2002):

What was measured:
Type in all cases: in vivo
[1] = test system: field corn (Zea mays L., var. Dekalb 535, CORN); experiment: Pre-emerge test, crop safety; settings: pre-emerge, rated 14 days after application, 0 = no damage, 100 = complete death
Procedure, shortened: (§1)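 Herbicidal damage is scored 0 (none) to 100 (complete plant death) two weeks after a simulated field spray. Rates span 15–1000 g ai/ha, delivered in acetone at 187 l/ha. For post-emergence treatments, plants have 2–3 leaves and the spray carries 0.25% v/v non-ionic surfactant.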

[2] = test system: upland rice (Oryza sp., var. Tebonnet, RICE); experiment: Pre-emerge test, crop safety; settings: pre-emerge, rated 14 days after application, 0 = no damage, 100 = complete death
Procedure, shortened: as §1

[3] = test system: velvetleaf (Abutilon theophrasti, ABUTH); experiment: Pre-emerge test, greenhouse herbicide activity screening; settings: pre-emerge, rated 14 days after application, 0 = no damage, 100 = complete death
Procedure, shortened: (§2)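 Compounds in acetone were track-sprayed at 15-1000 g ai/ha (187 l/ha) on sandy loam pots: pre-emerge one day after seeding, post-emerge at 2-3 leaf stage with 0.25% v/v non-ionic surfactant. Phytotoxicity was rated 14 days later on a 0 (no damage) to 100 (complete death) scale.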

[4] = test system: sicklepod (Cassia obtusifolia, CASOB); experiment: as above; settings: pre-emerge, rated 14 days after application, 0 = no damage, 100 = complete death
Procedure, shortened: as §2

[5] = test system: large crabgrass (Digitaria sanguinalis, DIGSA); experiment: as above; settings: pre-emerge, rated 14 days after application, 0 = no damage, 100 = complete death
Procedure, shortened: as §2

[6] = test system: green foxtail (Setaria viridis, SETVI); experiment: as above; settings: pre-emerge, rated 14 days after application, 0 = no damage, 100 = complete death
Procedure, shortened: as §2

[7] = test system: ivyleaf morningglory (Ipomoea hederacea, IPOHE); experiment: as above; settings: pre-emerge, rated 14 days after application, 0 = no damage, 100 = complete death
Procedure, shortened: as §2

[8] = test system: barnyardgrass (Echinochloa crus-galli, ECHCG); experiment: as above; settings: pre-emerge, rated 14 days after application, 0 = no damage, 100 = complete death
Procedure, shortened: as §2

[9] = test system: lambsquarters (Chenopodium album, CHEAL); experiment: as above; settings: pre-emerge, rated 14 days after application, 0 = no damage, 100 = complete death
Procedure, shortened: as §2

[10] = test system: johnsongrass (Sorghum halepense, SORHA); experiment: as above; settings: pre-emerge, rated 14 days after application, 0 = no damage, 100 = complete death
Procedure, shortened: as §2

[11] = test system: field corn (Zea mays L., var. Dekalb 535, CORN); experiment: Post-emerge test, crop safety; settings: phytotoxicity rating 0-100 (0 no damage, 100 complete death), 14 days after application
Procedure, shortened: as §2

[12] = test system: upland rice (Oryza sp., var. Tebonnet, RICE); experiment: Post-emerge test, crop safety; settings: phytotoxicity rating 0-100 (0 no damage, 100 complete death), 14 days after application
Procedure, shortened: as §2

[13] = test system: velvetleaf (Abutilon theophrasti, ABUTH); experiment: Post-emerge test, greenhouse herbicide activity screening; settings: phytotoxicity rating 0-100 (0 no damage, 100 complete death), 14 days after application
Procedure, shortened: (§3)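 Visual ratings on a 0-100 scale (0 no damage, 100 all plants dead) were taken at 14 days after treatment. Rates of 15-1000 g ai/ha in acetone, 187 l/ha, were sprayed onto soil one day after planting (pre-emerge) or onto 2-3 leaf plants with 0.25% v/v surfactant (post-emerge).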

[14] = test system: sicklepod (Cassia obtusifolia, CASOB); experiment: as above; settings: phytotoxicity rating 0-100 (0 no damage, 100 complete death), 14 days after application
Procedure, shortened: as §3

[15] = test system: redroot pigweed (Amaranthus retroflexus, AMARE); experiment: as above; settings: phytotoxicity rating 0-100 (0 no damage, 100 complete death), 14 days after application
Procedure, shortened: as §3

[16] = test system: large crabgrass (Digitaria sanguinalis, DIGSA); experiment: as above; settings: phytotoxicity rating 0-100 (0 no damage, 100 complete death), 14 days after application
Procedure, shortened: as §3

[17] = test system: green foxtail (Setaria viridis, SETVI); experiment: as above; settings: phytotoxicity rating 0-100 (0 no damage, 100 complete death), 14 days after application
Procedure, shortened: as §3

[18] = test system: ivyleaf morningglory (Ipomoea hederacea, IPOHE); experiment: as above; settings: phytotoxicity rating 0-100 (0 no damage, 100 complete death), 14 days after application
Procedure, shortened: as §3

[19] = test system: barnyardgrass (Echinochloa crus-galli, ECHCG); experiment: as above; settings: phytotoxicity rating 0-100 (0 no damage, 100 complete death), 14 days after application
Procedure, shortened: as §3

[20] = test system: lambsquarters (Chenopodium album, CHEAL); experiment: as above; settings: phytotoxicity rating 0-100 (0 no damage, 100 complete death), 14 days after application
Procedure, shortened: as §3

[21] = test system: johnsongrass (Sorghum halepense, SORHA); experiment: as above; settings: phytotoxicity rating 0-100 (0 no damage, 100 complete death), 14 days after application
Procedure, shortened: as §3

[22] = test system: redroot pigweed (Amaranthus retroflexus, AMARE); experiment: Pre-emerge test, greenhouse herbicide activity screening; settings: pre-emerge, rated 14 days after application, 0 = no damage, 100 = complete death
Procedure, shortened: as §2

C#CCOc1c(Cl)cc(F)c(-n2c(=O)cc(C(F)(F)F)n(C)c2=O)c1N [Compound 1-19]
Pre-emerge crop damage CORN (phytotoxicity rating, scale 0-100) ([1]; 63 g ai/ha): 50 | Pre-emerge crop damage CORN (phytotoxicity rating, scale 0-100) ([1]; 250 g ai/ha): 80 | Pre-emerge crop damage RICE (phytotoxicity rating, scale 0-100) ([2]; 63 g ai/ha): 80 | Pre-emerge crop damage RICE (phytotoxicity rating, scale 0-100) ([2]; 250 g ai/ha): 95 | Pre-emerge Herbicidal Activity ABUTH (phytotoxicity rating, scale 0-100) ([3]; 63 g ai/ha): 100 | Pre-emerge Herbicidal Activity ABUTH (phytotoxicity rating, scale 0-100) ([3]; 250 g ai/ha): 100 | Pre-emerge Herbicidal Activity CASOB (phytotoxicity rating, scale 0-100) ([4]; 63 g ai/ha): 90 | Pre-emerge Herbicidal Activity CASOB (phytotoxicity rating, scale 0-100) ([4]; 250 g ai/ha): 100 | Pre-emerge Herbicidal Activity DIGSA (phytotoxicity rating, scale 0-100) ([5]; 63 g ai/ha): 95 | Pre-emerge Herbicidal Activity DIGSA (phytotoxicity rating, scale 0-100) ([5]; 250 g ai/ha): 100 | Pre-emerge Herbicidal Activity SETVI (phytotoxicity rating, scale 0-100) ([6]; 63 g ai/ha): 100 | Pre-emerge Herbicidal Activity SETVI (phytotoxicity rating, scale 0-100) ([6]; 250 g ai/ha): 100 | Pre-emerge Herbicidal Activity IPOHE (phytotoxicity rating, scale 0-100) ([7]; 63 g ai/ha): 60 | Pre-emerge Herbicidal Activity IPOHE (phytotoxicity rating, scale 0-100) ([7]; 250 g ai/ha): 100 | Pre-emerge Herbicidal Activity ECHCG (phytotoxicity rating, scale 0-100) ([8]; 63 g ai/ha): 90 | Pre-emerge Herbicidal Activity ECHCG (phytotoxicity rating, scale 0-100) ([8]; 250 g ai/ha): 100 | Pre-emerge Herbicidal Activity CHEAL (phytotoxicity rating, scale 0-100) ([9]; 63 g ai/ha): 100 | Pre-emerge Herbicidal Activity CHEAL (phytotoxicity rating, scale 0-100) ([9]; 250 g ai/ha): 100 | Pre-emerge Herbicidal Activity SORHA (phytotoxicity rating, scale 0-100) ([10]; 63 g ai/ha): 90 | Pre-emerge Herbicidal Activity SORHA (phytotoxicity rating, scale 0-100) ([10]; 250 g ai/ha): 100 | Post-emerge Herbicidal Activity CORN (crop damage) ([11]; 63 g ai/ha): 5 | Post-emerge Herbicidal Activity CORN (crop damage) ([11]; 250 g ai/ha): 45 | Post-emerge Herbicidal Activity RICE (crop damage) ([12]; 63 g ai/ha): 25 | Post-emerge Herbicidal Activity RICE (crop damage) ([12]; 250 g ai/ha): 80 | Post-emerge Herbicidal Activity ABUTH ([13]; 63 g ai/ha): 100 | Post-emerge Herbicidal Activity ABUTH ([13]; 250 g ai/ha): 100 | Post-emerge Herbicidal Activity CASOB ([14]; 63 g ai/ha): 10 | Post-emerge Herbicidal Activity CASOB ([14]; 250 g ai/ha): 30 | Post-emerge Herbicidal Activity AMARE ([15]; 63 g ai/ha): 30 | Post-emerge Herbicidal Activity AMARE ([15]; 250 g ai/ha): 70 | Post-emerge Herbicidal Activity DIGSA ([16]; 63 g ai/ha): 0 | Post-emerge Herbicidal Activity DIGSA ([16]; 250 g ai/ha): 10 | Post-emerge Herbicidal Activity SETVI ([17]; 63 g ai/ha): 20 | Post-emerge Herbicidal Activity SETVI ([17]; 250 g ai/ha): 95 | Post-emerge Herbicidal Activity IPOHE ([18]; 63 g ai/ha): 30 | Post-emerge Herbicidal Activity IPOHE ([18]; 250 g ai/ha): 95 | Post-emerge Herbicidal Activity ECHCG ([19]; 63 g ai/ha): 0 | Post-emerge Herbicidal Activity ECHCG ([19]; 250 g ai/ha): 80 | Post-emerge Herbicidal Activity CHEAL ([20]; 63 g ai/ha): 30 | Post-emerge Herbicidal Activity CHEAL ([20]; 250 g ai/ha): 90 | Post-emerge Herbicidal Activity SORHA ([21]; 63 g ai/ha): 0 | Post-emerge Herbicidal Activity SORHA ([21]; 250 g ai/ha): 70 | Pre-emerge Herbicidal Activity AMARE (phytotoxicity rating, scale 0-100) ([22]; 63 g ai/ha): 95 | Pre-emerge Herbicidal Activity AMARE (phytotoxicity rating, scale 0-100) ([22]; 250 g ai/ha): 100

COC(=O)C=CCOc1c(Cl)cc(F)c(-n2c(=O)cc(C(F)(F)F)n(C)c2=O)c1N [Compound 1-20]
Pre-emerge crop damage CORN (phytotoxicity rating, scale 0-100) ([1]; 63 g ai/ha): 15 | Pre-emerge crop damage CORN (phytotoxicity rating, scale 0-100) ([1]; 250 g ai/ha): 65 | Pre-emerge crop damage RICE (phytotoxicity rating, scale 0-100) ([2]; 63 g ai/ha): 60 | Pre-emerge crop damage RICE (phytotoxicity rating, scale 0-100) ([2]; 250 g ai/ha): 70 | Pre-emerge Herbicidal Activity ABUTH (phytotoxicity rating, scale 0-100) ([3]; 63 g ai/ha): 100 | Pre-emerge Herbicidal Activity ABUTH (phytotoxicity rating, scale 0-100) ([3]; 250 g ai/ha): 100 | Pre-emerge Herbicidal Activity CASOB (phytotoxicity rating, scale 0-100) ([4]; 63 g ai/ha): 100 | Pre-emerge Herbicidal Activity CASOB (phytotoxicity rating, scale 0-100) ([4]; 250 g ai/ha): 100 | Pre-emerge Herbicidal Activity DIGSA (phytotoxicity rating, scale 0-100) ([5]; 63 g ai/ha): 50 | Pre-emerge Herbicidal Activity DIGSA (phytotoxicity rating, scale 0-100) ([5]; 250 g ai/ha): 90 | Pre-emerge Herbicidal Activity SETVI (phytotoxicity rating, scale 0-100) ([6]; 63 g ai/ha): 80 | Pre-emerge Herbicidal Activity SETVI (phytotoxicity rating, scale 0-100) ([6]; 250 g ai/ha): 100 | Pre-emerge Herbicidal Activity IPOHE (phytotoxicity rating, scale 0-100) ([7]; 63 g ai/ha): 40 | Pre-emerge Herbicidal Activity IPOHE (phytotoxicity rating, scale 0-100) ([7]; 250 g ai/ha): 100 | Pre-emerge Herbicidal Activity ECHCG (phytotoxicity rating, scale 0-100) ([8]; 63 g ai/ha): 50 | Pre-emerge Herbicidal Activity ECHCG (phytotoxicity rating, scale 0-100) ([8]; 250 g ai/ha): 100 | Pre-emerge Herbicidal Activity CHEAL (phytotoxicity rating, scale 0-100) ([9]; 63 g ai/ha): 100 | Pre-emerge Herbicidal Activity CHEAL (phytotoxicity rating, scale 0-100) ([9]; 250 g ai/ha): 100 | Pre-emerge Herbicidal Activity SORHA (phytotoxicity rating, scale 0-100) ([10]; 63 g ai/ha): 30 | Pre-emerge Herbicidal Activity SORHA (phytotoxicity rating, scale 0-100) ([10]; 250 g ai/ha): 70 | Post-emerge Herbicidal Activity CORN (crop damage) ([11]; 63 g ai/ha): 10 | Post-emerge Herbicidal Activity CORN (crop damage) ([11]; 250 g ai/ha): 40 | Post-emerge Herbicidal Activity RICE (crop damage) ([12]; 63 g ai/ha): 20 | Post-emerge Herbicidal Activity RICE (crop damage) ([12]; 250 g ai/ha): 50 | Post-emerge Herbicidal Activity ABUTH ([13]; 63 g ai/ha): 100 | Post-emerge Herbicidal Activity ABUTH ([13]; 250 g ai/ha): 100 | Post-emerge Herbicidal Activity CASOB ([14]; 63 g ai/ha): 0 | Post-emerge Herbicidal Activity CASOB ([14]; 250 g ai/ha): 50 | Post-emerge Herbicidal Activity AMARE ([15]; 63 g ai/ha): 90 | Post-emerge Herbicidal Activity AMARE ([15]; 250 g ai/ha): 100 | Post-emerge Herbicidal Activity DIGSA ([16]; 63 g ai/ha): 10 | Post-emerge Herbicidal Activity DIGSA ([16]; 250 g ai/ha): 20 | Post-emerge Herbicidal Activity SETVI ([17]; 63 g ai/ha): 0 | Post-emerge Herbicidal Activity SETVI ([17]; 250 g ai/ha): 60 | Post-emerge Herbicidal Activity IPOHE ([18]; 63 g ai/ha): 100 | Post-emerge Herbicidal Activity IPOHE ([18]; 250 g ai/ha): 100 | Post-emerge Herbicidal Activity ECHCG ([19]; 63 g ai/ha): 30 | Post-emerge Herbicidal Activity ECHCG ([19]; 250 g ai/ha): 80 | Post-emerge Herbicidal Activity CHEAL ([20]; 63 g ai/ha): 90 | Post-emerge Herbicidal Activity CHEAL ([20]; 250 g ai/ha): 100 | Post-emerge Herbicidal Activity SORHA ([21]; 63 g ai/ha): 10 | Post-emerge Herbicidal Activity SORHA ([21]; 250 g ai/ha): 70 | Pre-emerge Herbicidal Activity AMARE (phytotoxicity rating, scale 0-100) ([22]; 63 g ai/ha): 100 | Pre-emerge Herbicidal Activity AMARE (phytotoxicity rating, scale 0-100) ([22]; 250 g ai/ha): 100
